Data taken from paper PMC6934498, “Neferine induces autophagy-dependent cell death in apoptosis-resistant cancers via ryanodine receptor and Ca^2+-dependent mechanism” (Scientific Reports, 2019).

Biological target: T1, SERCA1A (sarcoplasmic/endoplasmic reticulum Ca2+ ATPase) (Oryctolagus cuniculus, UniProt P04191)
T1 construct: gene ATP2A1; purified rabbit skeletal muscle SR membranes expressing the SERCA1A isoform
Experiment: coupled-enzyme ATPase assay on purified SERCA1A from rabbit skeletal muscle
Format: biochemical

T1 sequence (P04191 1-993): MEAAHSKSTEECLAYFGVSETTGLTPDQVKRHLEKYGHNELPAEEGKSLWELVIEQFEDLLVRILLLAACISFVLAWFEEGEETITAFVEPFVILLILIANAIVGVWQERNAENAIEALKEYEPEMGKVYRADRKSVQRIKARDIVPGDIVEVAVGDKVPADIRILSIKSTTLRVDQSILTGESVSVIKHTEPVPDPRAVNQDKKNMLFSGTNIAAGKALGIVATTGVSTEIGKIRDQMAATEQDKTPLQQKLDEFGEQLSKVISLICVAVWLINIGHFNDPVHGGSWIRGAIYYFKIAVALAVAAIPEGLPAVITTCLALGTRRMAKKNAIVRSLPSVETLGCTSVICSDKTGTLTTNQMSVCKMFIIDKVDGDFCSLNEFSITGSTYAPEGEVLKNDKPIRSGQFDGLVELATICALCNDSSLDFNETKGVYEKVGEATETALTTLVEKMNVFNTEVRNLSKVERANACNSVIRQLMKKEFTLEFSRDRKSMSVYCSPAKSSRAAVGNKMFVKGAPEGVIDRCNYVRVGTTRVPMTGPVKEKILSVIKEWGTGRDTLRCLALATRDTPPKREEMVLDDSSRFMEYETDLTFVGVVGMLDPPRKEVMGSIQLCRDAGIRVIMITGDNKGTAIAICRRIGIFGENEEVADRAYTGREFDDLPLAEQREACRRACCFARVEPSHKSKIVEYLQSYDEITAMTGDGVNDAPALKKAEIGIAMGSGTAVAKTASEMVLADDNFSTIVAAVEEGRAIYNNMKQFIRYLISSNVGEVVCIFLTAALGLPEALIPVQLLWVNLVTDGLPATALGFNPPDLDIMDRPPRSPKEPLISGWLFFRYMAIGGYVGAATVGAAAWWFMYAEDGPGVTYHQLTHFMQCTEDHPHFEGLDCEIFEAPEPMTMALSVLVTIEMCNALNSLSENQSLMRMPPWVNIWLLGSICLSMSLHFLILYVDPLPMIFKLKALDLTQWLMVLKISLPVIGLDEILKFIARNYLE

COc1ccc(C[C@@H]2c3cc(Oc4cc(C[C@@H]5c6cc(OC)c(OC)cc6CCN5C)ccc4O)c(OC)cc3CCN2C)cc1 [neferine]
IC50: 320 ± 70 µM
